8 molecules from patent US12103924B2, “Mitogen-activated protein kinase kinase (MEK) degradation compounds and methods of use” (Icahn School of Medicine at Mount Sinai, priority 2020, dated 2024) can be followed below.

Usually GI50 stands for the concentration giving 50% growth inhibition.

This assay has as its system HT-29 cells. The assay is described as follows: MTT cell viability assay, HT-29. Format: cell-based. The settings on record: Homo sapiens, 72 h, MTT assay, 3 d treatment, serial dilutions. (Formazan colour is commonly taken as a measure of viable cells.)
Protocol: MTT assay was conducted for HT-29 cells after 3 d treatment with indicated compounds with serial dilutions.
MTT assay was conducted for HT-29 (A) and SK-MEL-28 (B) cells after 3 d treatment with DMSO or indicated compounds with serial dilutions. Clonogenic assay was performed in HT-29 (C) and SK-MEL-28 (D) cells for 14 d treatment with DMSO or indicated compounds with 10, 30 and 100 nM, in duplicate, respectively. Cells were then stained by crystal violet.
Cells (2000 cells per well) were seeded into 96-well microplates. After 20 h, cells were treated with 0.1% DMSO or indicated serial dilutions of compounds in duplicate or triplicate for 3 days. Cell viability was tested using MTT (M6494, Thermo Fisher Scientific) or WST-8 reagent (CK04, Dojindo). Briefly, 12 mM MTT was prepared in PBS or WST-8 reagent was warmed up to room temperature. 20 μL MTT or CCK-8 was then added to each well and the plates were kept in incubator at 37° C. for 3 h in the dark. For the WST-8 assay, signal was obtained after the incubation. For the MTT assay, cell medium was replaced with 200 μL of DMSO after the incubation, and then cell plates were kept at 37° C. for another 30 min. Absorbance signals for MTT and WST-8 were read at 540 nm and 450 nm respectively, with 690 nm as reference performed with Infinite F PLEX plate reader (TECAN, Morrisville, NC, USA). GI50 values were analyzed using GraphPad Prism 8 from the data of at least three independent experiments.
HT-29 or SK-MEL-28 cells (300 cells per well) were seeded in 12-well plates. After 20 h, cells were treated with DMSO or indicated concentrations of compounds in duplicate for two weeks. Medium containing indicated compounds was changed every 3 days. Cells were then fixed and stained with the solution containing 6% (v/v) glutaraldehyde (G5882, Sigma-Aldrich) and 0.5% (w/v) crystal violet for 1 h. To remove the background color, the plates with stained cells were immersed in running water until clear colonies were observed. The plates were dried at RT. The staining images were obtained with Epson Perfection V600 Photo.
`O=C1CCC(N2C(=O)c3cccc(NCCOCCOCCOCCNCCCONC(=O)c4ccc(F)c(F)c4Nc4ccc(I)cc4F)c3C2=O)C(=O)N1` (centres unmarked) [CPD-021, N-((1-((2-(2,6-dioxopiperidin-3-yl)-1,3-dioxoisoindolin-4-yl)amino)-3,6,9-trioxa-12-azapentadecan-15-yl)oxy)-3,4-difluoro-2-((2-fluoro-4-iodophenyl)amino)benzamide] displayed a GI50 of 0.8 ± 0.2 µM.

`Cc1ncsc1-c1ccc(CNC(=O)[C@@H]2C[C@@H](O)CN2C(=O)[C@@H](NC(=O)CCOCCOCCOCCOCCNCCCONC(=O)c2ccc(F)c(F)c2Nc2ccc(I)cc2F)C(C)(C)C)cc1` [CPD-017, (2S,4R)-1-((S)-24-(tert-butyl)-1-(3,4-difluoro-2-((2-fluoro-4-iodophenyl)amino)phenyl)-1,22-dioxo-3,10,13,16,19-pentaoxa-2,7,23-triazapentacosan-25-oyl)-4-hydroxy-N-(4-(4-methylthiazol-5-yl)benzyl)pyrrolidine-2-carboxamide] had a GI50 of 1.7 ± 0.1 µM.

On to `Cc1ncsc1-c1ccc([C@H](C)NC(=O)[C@@H]2C[C@@H](O)CN2C(=O)[C@@H](NC(=O)CCCCCCCCCNCCCCONC(=O)c2ccc(F)c(F)c2Nc2ccc(I)cc2F)C(C)(C)C)cc1` [CPD-035, (2S,4R)-1-((S)-20-(tert-butyl)-1-(3,4-difluoro-2-((2-fluoro-4-iodophenyl)amino)phenyl)-1,18-dioxo-3-oxa-2,8,19-triazahenicosan-21-oyl)-4-hydroxy-N—((S)-1-(4-(4-methylthiazol-5-yl)phenyl)ethyl)pyrrolidine-2-carboxamide], for which it took 0.055 ± 0.005 µM to inhibit growth by half (GI50).

In the case of `O=C1CCC(N2C(=O)c3cccc(NCCOCCOCCNCCCONC(=O)c4ccc(F)c(F)c4Nc4ccc(I)cc4F)c3C2=O)C(=O)N1` (centres unmarked) [CPD-020, N-(3-((2-(2-(2-((2-(2,6-dioxopiperidin-3-yl)-1,3-dioxoisoindolin-4-yl)amino)ethoxy)ethoxy)ethyl)amino)propoxy)-3,4-difluoro-2-((2-fluoro-4-iodophenyl)amino)benzamide], the GI50 stood at 1.3 ± 0.5 µM.

The molecule `Cc1ncsc1-c1ccc(CNC(=O)[C@@H]2C[C@@H](O)CN2C(=O)[C@@H](NC(=O)CCOCCOCCOCCNCCCONC(=O)c2ccc(F)c(F)c2Nc2ccc(I)cc2F)C(C)(C)C)cc1` [CPD-016, (2S,4R)-1-((S)-21-(tert-butyl)-1-(3,4-difluoro-2-((2-fluoro-4-iodophenyl)amino)phenyl)-1,19-dioxo-3,10,13,16-tetraoxa-2,7,20-triazadocosan-22-oyl)-4-hydroxy-N-(4-(4-methylthiazol-5-yl)benzyl)pyrrolidine-2-carboxamide] returned a GI50 of 3.3 ± 0.6 µM.

Take `Cc1ncsc1-c1ccc(CNC(=O)[C@@H]2C[C@@H](O)CN2C(=O)[C@@H](NC(=O)CCCCNCCCONC(=O)c2ccc(F)c(F)c2Nc2ccc(I)cc2F)C(C)(C)C)cc1` [CPD-007, (2S,4R)-1-((S)-14-(tert-Butyl)-1-(3,4-difluoro-2-((2-fluoro-4-iodophenyl)amino)phenyl)-1,12-dioxo-3-oxa-2,7,13-triazapentadecan-15-oyl)-4-hydroxy-N-(4-(4-methylthiazol-5-yl)benzyl)pyrrolidine-2-carboxamide]: the GI50 was determined as 3 ± 0.5 µM.

The molecule `Cc1ncsc1-c1ccc(CNC(=O)[C@@H]2C[C@@H](O)CN2C(=O)[C@@H](NC(=O)CCCNCCCONC(=O)c2ccc(F)c(F)c2Nc2ccc(I)cc2F)C(C)(C)C)cc1` [CPD-008, (2S,4R)-1-((S)-13-(tert-Butyl)-1-(3,4-difluoro-2-((2-fluoro-4-iodophenyl)amino)phenyl)-1,11-dioxo-3-oxa-2,7,12-triazatetradecan-14-oyl)-4-hydroxy-N-(4-(4-methylthiazol-5-yl)benzyl)pyrrolidine-2-carboxamide] displayed a 50% growth inhibitory concentration (GI50) of 11 ± 0.9 µM.

The molecule `O=C1CCC(N2C(=O)c3ccc(NCCCCCCNCCCONC(=O)c4ccc(F)c(F)c4Nc4ccc(I)cc4F)cc3C2=O)C(=O)N1` (centres unmarked) [CPD-044, N-(3-((6-((2-(2,6-dioxopiperidin-3-yl)-1,3-dioxoisoindolin-5-yl)amino)hexyl)amino)propoxy)-3,4-difluoro-2-((2-fluoro-4-iodophenyl)amino)benzamide] yielded a GI50 of 1.1 ± 0.5 µM.
